From patent US7268108B2, “Alpha-melanocyte stimulating hormone derivatives and cosmetic application thereof” (Institut European de Biologie Cellulaire, priority 2002, dated 2007)
“Also recorded” adds a separate entry of the source. Where a SMILES comes first, the peptide text is derived from it. [ ]: non-standard residue; d: D form. Nle = CCCC[C@H](N)C(=O)O

Test system: cutaneous melanogenesis
Test: double-blind study of melanostimulant effects by topical administration in humans
Assay type: in vivo
Conditions: gel at 10 ppm, topical twice a day for 3 weeks, listed as peptide no. 1
Experimental: 2. A double-blind study of the melanostimulant effects by topical administration of peptide no. 1 in the table was carried out in humans.
A gel of peptide no. 1 at 10 ppm and its placebo were applied, twice a day for 3 weeks, to the inner face of the forearms of twelve normal volunteers who had given their informed consent. Since the arms were not exposed to the sun, they were given an exactly calibrated artificial solar exposure of 0.6 MED (minimum erythema dose) once a day from the 16th to 20th day.
24 h after the final treatment, a clinical evaluation of the treated regions was carried out blind, and the intensity of coloration was marked according to a five-level index scale. A biopsy sample was then taken in order to quantify the melanin produced and to evaluate the ultrastructural consequences of the treatment.
The quantification of the epidermal melanin was carried out on histological sections by image analysis after labeling with AgNO3. Only the active layers of the epidermis were analyzed (from the stratum germinativum to the stratum spinosum), using the Leica Quantimet after digitization (Sony CCD camera).
The ultrastructural analysis of the melanocytes and melanosomes was carried out by electron microscopy. A double-contrast technique was used on the thin sections, which were then observed at magnifications ranging up to ×12000 (Jeol 1200EX).

## CCCC[C@H](NC(C)=O)C(=O)N[C@@H](C)C(=O)N[C@@H](Cc1c[nH]cn1)C(=O)N[C@H](Cc1ccccc1)C(=O)N[C@@H](CCCNC(=N)N)C(=O)N[C@@H](Cc1c[nH]c2ccccc12)C(N)=O [Compound 1, Ac-Nle-Ala-His-DPhe-Arg-Trp-NH2] (Ac-[Nle]AH[dF]RW-NH2)
  local tolerance (clinical observation of the treated regions): no sign of intolerance; also recorded: completely tolerated at the local level
